Measured values: US20210355104A1, “ADENOSINE RECEPTOR BINDING COMPOUNDS” (Nikang Therapeuticsm Inc., priority 2018, published 2021)
“And” between values parts separate entries of the source, which are not always exact repeats. Identical values can stand only once.

molecular target: Adenosine A2A receptor (Homo sapiens, UniProt P29274); test: cAMP assay in 293A cells stably expressing the adenosine A2A receptor (CGS21680 stimulation, HTRF); assay type: cell-based; design: expressed in transfected cells; host or cells: 293A cells (Invitrogen, Cat# R705-07) infected with A2A-expressing lentivirus (custom packaged by Biosettia), puromycin selected; conditions: 293A cells stably expressing A2A receptor; 0.1% BSA; 1 uM CGS21680 stimulation; replicate values separated by /; read-out: cAMP (nM) 0.1% BSA, 1 uM CGS
Protocol: A 293A cell line (Invitrogen, Cat# R705-07) stably expressing the adenosine A2A receptor was generated in house. Briefly, 293A cells were seeded in 6-well plate and infected with A2A expressing lentivirus (custom packaged by Biosettia) and selected with puromycin (1 ug/ml). Cells survived selection were confirmed for A2A expression by RT-qPCR (RT Reagent: High-Capacity cDNA Reverse Transcription Kit, Applied Biosystems/Thermo Fisher Cat# 4368814, qPCR reagent: SYBR™ Green Master Mix, Applied Biosystems/Thermo Fisher Cat# 4309155). The cells were maintained in DMEM/F12 medium containing 10% FBS, 100 units/ml Penicillin, 100 μg/ml Streptomycin, and 1 μg/ml puromycin at 37° C., 5% CO2. 293A-A2AR cells were harvested on the day of assay and resuspended at 0.6 million cells/ml in DMEM/F12 with 0.1% BSA and 30 U/ml denosine deaminase(Roche, Cat #: 10102121001). Serial dilutions of compounds were prepared in DMEM/F12 with 0.1% BSA to a DMSO concentration of 0.6%. After 4 μl of compound dilutions were added, 4 μl suspended cells were dispensed into low-volume white 384-well plates (Greiner Bio-One). […] The assay plate was then incubated at room temperature for 30 min. 3 μl of d2 conjugated cAMP and 3 μl cryptate conjugated anti-cAMP antibody were then added. D2 conjugated cAMP and cryptate conjugated anti-cAMP antibody (Cisbio, Cat #: 62AM6PEC) were both prepared in cell lysis buffer according to the manufacturer's instruction. After 1 h incubation at room temperature, plates were read in CIARIOstar plate reader (BMG Labtech) using the HTRF detection mode.

Chain of Adenosine A2A receptor (P29274 whole entry): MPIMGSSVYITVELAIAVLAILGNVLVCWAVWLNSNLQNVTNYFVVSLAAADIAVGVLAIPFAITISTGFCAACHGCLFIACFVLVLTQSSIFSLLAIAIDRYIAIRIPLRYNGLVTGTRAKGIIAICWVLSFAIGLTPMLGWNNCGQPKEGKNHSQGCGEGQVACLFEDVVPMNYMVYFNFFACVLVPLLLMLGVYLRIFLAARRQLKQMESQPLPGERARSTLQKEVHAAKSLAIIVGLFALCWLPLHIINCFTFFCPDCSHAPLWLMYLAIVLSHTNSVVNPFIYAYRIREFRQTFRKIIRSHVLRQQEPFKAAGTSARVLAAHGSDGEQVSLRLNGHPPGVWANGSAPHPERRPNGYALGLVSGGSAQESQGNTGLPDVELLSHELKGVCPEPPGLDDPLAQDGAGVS

| SMILES | IC50 |
| --- | --- |
| Cc1cc(-c2c(OCc3nc(C(C)(C)O)cn3C)nc(N)nc2-c2ccc(F)cc2)cc(C(F)F)n1 [Example 401, 2-(2-(((2-amino-5-(2-(difluoromethyl)-6-methylpyridin-4-yl)-6-(4-fluorophenyl)pyrimidin-4-yl)oxy)methyl)-1-methyl-1H-imidazol-4-yl)propan-2-ol] | 318 nM and 246 nM and 259 nM |
| Cc1cc(-c2c(OCc3ccc(=O)n(C(C)(C)C(=O)O)n3)nc(N)nc2-c2ccc(F)cc2)cc(C(F)F)n1 [Example 428, 2-(3-(((2-amino-5-(2-(difluoromethyl)-6-methylpyridin-4-yl)-6-(4-fluorophenyl)pyrimidin-4-yl)oxy)methyl)-6-oxopyridazin-1(6H)-yl)-2-methylpropanoic acid] | > 30000 nM |

same assay, conditions: 293A-A2AR cells, 0.1% BSA, 1 uM CGS; read-out: cAMP (nM) 0.1% BSA, 1 uM CGS

| SMILES | IC50 |
| --- | --- |
| Cc1cc(-c2c(OCc3ncc(C(C)(C)O)n3C)nc(N)nc2-c2ccc(F)cc2)cc(C(F)F)n1 [Example 378, 2-(2-(((2-amino-5-(2-(difluoromethyl)-6-methylpyridin-4-yl)-6-(4-fluorophenyl)pyrimidin-4-yl)oxy)methyl)-1-methyl-1H-imidazol-5-yl)propan-2-ol] | 430 nM and 173 nM and 247 nM |
| Cc1cc(-c2c(OCc3nc4ccccc4s3)nc(N)nc2-c2ccc(F)cc2)cc(C(F)F)n1 [Example 347, 4-(benzo[d]thiazol-2-ylmethoxy)-5-(2-(difluoromethyl)-6-methylpyridin-4-yl)-6-(4-fluorophenyl)pyrimidin-2-amine] | 634 nM |
| Cc1cc(-c2c(OC[C@H]3CC[C@H](C(=O)O)CC3)nc(N)nc2-c2ccc(F)cc2)cc(C(F)F)n1 [Example 279, (1,4-trans)-4-(((2-amino-5-(2-(difluoromethyl)-6-methylpyridin-4-yl)-6-(4-fluorophenyl)pyrimidin-4-yl)oxy)methyl)cyclohexane-1-carboxylic acid] | > 25000 nM |
| CCc1c(COc2nc(N)nc(-c3ccc(F)cc3)c2-c2cc(C)nc(C(F)F)c2)nnn1CC(C)(C)O [Example 252, 1-(4-(((2-ainino-5-(2-(difluoromethyl)-6-methylpyridin-4-yl)-6-(4-fluorophenyl)pyrimidin-4-yl)oxy)methyl)-5-ethyl-1H-1,2,3-triazol-1-yl)-2-methylpropan-2-ol] | 1260 nM |
| CCn1c(COc2nc(N)nc(-c3ccc(F)cc3)c2-c2cc(C)nc(C(F)F)c2)nc2ccc(C(=O)O)cc21 [Example 332, 2-(((2-amino-5-(2-(difluoromethyl)-6-methylpyridin-4-yl)-6-(4-fluorophenyl)pyrimidin-4-yl)oxy)methyl)-1-ethyl-1H-benzo[d]imidazole-6-carboxylic acid] | > 5000 nM |
| CCn1c(COc2nc(N)nc(-c3ccc(F)cc3)c2-c2cc(C)nc(C(F)F)c2)nc2cc(C(=O)O)ccc21 [Example 333, 2-(((2-amino-5-(2-(difluoromethyl)-6-methylpyridin-4-yl)-6-(4-fluorophenyl)pyrimidin-4-yl)oxy)methyl)-1-ethyl-1H-benzo[d]imidazole-5-carboxylic acid] | > 5000 nM |
| Cc1cc(-c2c(OCc3cccc(N4CC[C@@H](C(=O)O)C4)n3)nc(N)nc2-c2ccc(F)cc2)cc(C(F)F)n1 [Example 310, (R)-1-(6-(((2-amino-5-(2-(difluoromethyl)-6-methylpyridin-4-yl)-6-(4-fluorophenyl)pyrimidin-4-yl)oxy)methyl)pyridin-2-yl)pyrrolidine-3-carboxylic acid] | 2490 nM |
| Cc1cc(-c2c(OCCn3cc(C(=O)O)ccc3=O)nc(N)nc2-c2ccc(F)cc2)cc(C(F)F)n1 [Example 336, 1-(2-((2-amino-5-(2-(difluoromethyl)-6-methylpyridin-4-yl)-6-(4-fluorophenyl)pyrimidin-4-yl)oxy)ethyl)-6-oxo-1,6-dihydropyridine-3-carboxylic acid] | > 25000 nM |
| Cc1cc(-c2c(OCc3cccc(N(C)CCC(=O)O)n3)nc(N)nc2-c2ccc(F)cc2)cc(C(F)F)n1 [Example 328, 3-((6-(((2-amino-5-(2-(difluoromethyl)-6-methylpyridin-4-yl)-6-(4-fluorophenyl)pyrimidin-4-yl)oxy)methyl)pyridin-2-yl)(methyl)amino) propanoic acid] | 4510 nM |
| CCc1nnn(CC(C)(C)C(=O)O)c1COc1nc(N)nc(-c2ccc(F)cc2)c1-c1cc(C)nc(C(F)F)c1 [Example 301, 3-(5-(((2-amino-5-(2-(difluoromethyl)-6-methylpyridin-4-yl)-6-(4-fluorophenyl)pyrimidin-4-yl)oxy)methyl)-4-ethyl-1H-1,2,3-triazol-1-yl)-2,2-dimethylpropanoic acid] | > 10000 nM |
| CCc1nn(CC(=O)O)nc1COc1nc(N)nc(-c2ccc(F)cc2)c1-c1cc(C)nc(C(F)F)c1 [Example 231, 2-(4-(((2-amino-5-(2-(difluoromethyl)-6-methylpyridin-4-yl)-6-(4-fluorophenyl)pyrimidin-4-yl)oxy)methyl)-5-ethyl-2H-1,2,3-triazol-2-yl)acetic acid] | > 25000 nM |
| Cc1cc(-c2c(OCCN(C)c3cccnn3)nc(N)nc2-c2cccc(C#N)c2C)cc(C(F)F)n1 [Example 246, 3-(2-amino-5-(2-(difluoromethyl)-6-methylpyridin-4-yl)-6-(2-(methyl(pyridazin-3-yl)amino)ethoxy)pyrimidin-4-yl)-2-methylbenzonitrile] | 981 nM |
| Cc1cc(-c2c(OCc3nc4ccc(C(C)(C)C(=O)O)cc4n3C)nc(N)nc2-c2ccc(F)cc2)cc(C(F)F)n1 [Example 368, 2-(2-(((2-amino-5-(2-(difluoromethyl)-6-methylpyridin-4-yl)-6-(4-fluorophenyl)pyrimidin-4-yl)oxy)methyl)-1-methyl-1H-benzo[d]imidazol-6-yl)-2-methylpropanoic acid] | > 25000 nM |
| Cc1cc(-c2c(OCc3cnccn3)nc(N)nc2-c2ccc(F)cc2)cc(C(F)F)n1 [Example 273, 5-(2-(difluoromethyl)-6-methylpyridin-4-yl)-4-(4-fluorophenyl)-6-(pyrazin-2-ylmethoxy)pyrimidin-2-amine] | 1660 nM |
| Cc1cc(-c2c(OCc3cccc(N4CC(C(=O)O)C4)n3)nc(N)nc2-c2ccc(F)cc2)cc(C(F)F)n1 [Example 293, 1-(6-(((2-amino-5-(2-(difluoromethyl)-6-methylpyridin-4-yl)-6-(4-fluorophenyl)pyrimidin-4-yl)oxy)methyl)pyridin-2-yl)azetidine-3-carboxylic acid] | 4350 nM |
| CCn1cnc(COc2nc(N)nc(-c3cccc(C#N)c3C)c2-c2cc(C)nc(C(F)F)c2)n1 [Example 239, 3-(2-amino-5-(2-(difluoromethyl)-6-methylpyridin-4-yl)-6-((1-ethyl-1H-1,2,4-triazol-3-yl)methoxy)pyrimidin-4-yl)-2-methylbenzonitrile] | 7920 nM |
| COCC(O)c1cccc(COc2nc(N)nc(-c3ccc(F)cc3)c2-c2cc(C)nc(C(F)F)c2)n1 (stereo not drawn) [Example 281, 1-(6-(((2-amino-5-(2-(difluoromethyl)-6-methylpyridin-4-yl)-6-(4-fluorophenyl)pyrimidin-4-yl)oxy)methyl)pyridin-2-yl)-2-methoxyethan-1-ol] | 609 nM |
| CCc1nnn(CC(O)COC)c1COc1nc(N)nc(-c2ccc(F)cc2)c1-c1cc(C)nc(C(F)F)c1 (stereo not drawn) [Example 322, 1-(5-(((2-amino-5-(2-(difluoromethyl)-6-methylpyridin-4-yl)-6-(4-fluorophenyl)pyrimidin-4-yl)oxy)methyl)-4-ethyl-1H-1,2,3-triazol-1-yl)-3-methoxypropan-2-ol] | 2470 nM |
| Cc1cc(-c2c(OCc3cccc(C(C)(C)N)n3)nc(N)nc2-c2ccc(F)cc2)cc(C(F)F)n1 [Example 383, 4-((6-(2-aminopropan-2-yl)pyridin-2-yl)methoxy)-5-(2-(difluoromethyl)-6-methylpyridin-4-yl)-6-(4-fluorophenyl)pyrimidin-2-amine] | 1010 nM |
| CCc1nnn(C[C@@H](O)CO)c1COc1nc(N)nc(-c2ccc(F)cc2)c1-c1cc(C)nc(C(F)F)c1 [Example 290] | 1310 nM |
| Cc1cc(-c2c(OCc3cccc(C(C)O)n3)nc(N)nc2-c2ccc(F)cc2)cc(C(F)F)n1 (stereo not drawn) [Example 272, 1-(6-(((2-amino-5-(2-(difluoromethyl)-6-methylpyridin-4-yl)-6-(4-fluorophenyl)pyrimidin-4-yl)oxy)methyl)pyridin-2-yl)ethan-1-ol] | 88 nM and 161 nM |
| Cc1cc(-c2c(OCc3cc4ccccc4o3)nc(N)nc2-c2ccc(F)cc2)cc(C(F)F)n1 [Example 331, 4-(benzofuran-2-ylmethoxy)-5-(2-(difluoromethyl)-6-methylpyridin-4-yl)-6-(4-fluorophenyl)pyrimidin-2-amine] | 648 nM |
